From ChEMBL document CHEMBL4831500, “Discovery of first-in-class imidazothiazole-based potent and selective ErbB4 (HER4) kinase inhibitors” (Eur J Med Chem, 2021)

Key:
[1] = test system: Panel NCI-60 (60 carcinoma cell lines); assay: Growth inhibition of human panel NCI-60 (60 carcinoma cells) assessed as growth percent at 10 uM measured after 48 hrs by SRB assay relative to control; type: functional; details: read-out: Activity
[2] = biological target: RAF proto-oncogene serine/threonine-protein kinase (Homo sapiens, UniProt P04049); assay: Inhibition of RAF1 (unknown origin) incubated for 40 mins in presence of Mg/ATP mix by [gamma p33]-ATP based scintillation counting method
Chain of RAF proto-oncogene serine/threonine-protein kinase (P04049 whole entry): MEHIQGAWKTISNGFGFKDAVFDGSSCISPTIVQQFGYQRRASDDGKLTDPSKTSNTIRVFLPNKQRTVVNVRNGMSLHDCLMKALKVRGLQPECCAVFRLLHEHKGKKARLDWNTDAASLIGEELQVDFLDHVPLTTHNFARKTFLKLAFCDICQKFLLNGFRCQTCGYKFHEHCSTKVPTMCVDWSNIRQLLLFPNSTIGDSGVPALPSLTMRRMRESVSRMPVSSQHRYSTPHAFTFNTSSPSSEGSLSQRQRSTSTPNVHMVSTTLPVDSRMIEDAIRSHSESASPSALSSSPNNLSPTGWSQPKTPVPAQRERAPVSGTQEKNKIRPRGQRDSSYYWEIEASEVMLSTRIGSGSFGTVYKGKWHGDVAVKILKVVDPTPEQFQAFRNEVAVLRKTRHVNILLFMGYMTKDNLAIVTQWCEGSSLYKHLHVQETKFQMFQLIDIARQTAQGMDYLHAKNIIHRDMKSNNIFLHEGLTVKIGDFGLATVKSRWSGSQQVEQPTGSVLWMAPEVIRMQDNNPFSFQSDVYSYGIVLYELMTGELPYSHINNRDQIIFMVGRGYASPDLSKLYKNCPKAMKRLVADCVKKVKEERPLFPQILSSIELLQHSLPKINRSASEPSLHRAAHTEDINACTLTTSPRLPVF

[3] = biological target: Serine/threonine-protein kinase A-Raf (Homo sapiens, UniProt P10398); assay: Inhibition of A-RAF (unknown origin) incubated for 40 mins in presence of Mg/ATP mix by [gamma p33]-ATP based scintillation counting method
Chain of Serine/threonine-protein kinase A-Raf (P10398 whole entry): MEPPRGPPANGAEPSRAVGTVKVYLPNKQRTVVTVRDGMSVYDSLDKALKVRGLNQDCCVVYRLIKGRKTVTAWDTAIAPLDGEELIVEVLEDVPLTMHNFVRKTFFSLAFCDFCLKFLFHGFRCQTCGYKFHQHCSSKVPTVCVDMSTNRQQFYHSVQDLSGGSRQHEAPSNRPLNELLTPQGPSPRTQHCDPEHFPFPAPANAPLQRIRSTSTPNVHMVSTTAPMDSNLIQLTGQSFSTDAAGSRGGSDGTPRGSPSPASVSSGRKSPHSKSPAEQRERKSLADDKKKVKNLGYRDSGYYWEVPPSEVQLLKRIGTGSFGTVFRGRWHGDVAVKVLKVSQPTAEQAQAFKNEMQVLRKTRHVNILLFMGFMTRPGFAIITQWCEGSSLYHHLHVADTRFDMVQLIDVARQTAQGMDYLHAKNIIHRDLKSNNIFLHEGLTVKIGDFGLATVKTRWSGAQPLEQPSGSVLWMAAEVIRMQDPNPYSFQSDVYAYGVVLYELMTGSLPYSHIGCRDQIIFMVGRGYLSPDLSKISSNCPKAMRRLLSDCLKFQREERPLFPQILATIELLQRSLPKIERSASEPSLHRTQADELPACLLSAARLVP

[4] = biological target: Serine/threonine-protein kinase B-raf (Homo sapiens, UniProt P15056, V600E); assay: Inhibition of BRAF V600E mutant (unknown origin) incubated for 40 mins in presence of Mg/ATP mix by [gamma p33]-ATP based scintillation counting method
Chain of Serine/threonine-protein kinase B-raf (Homo sapiens, UniProt P15056, V600E) (P15056 2-766 V600E limits assumed): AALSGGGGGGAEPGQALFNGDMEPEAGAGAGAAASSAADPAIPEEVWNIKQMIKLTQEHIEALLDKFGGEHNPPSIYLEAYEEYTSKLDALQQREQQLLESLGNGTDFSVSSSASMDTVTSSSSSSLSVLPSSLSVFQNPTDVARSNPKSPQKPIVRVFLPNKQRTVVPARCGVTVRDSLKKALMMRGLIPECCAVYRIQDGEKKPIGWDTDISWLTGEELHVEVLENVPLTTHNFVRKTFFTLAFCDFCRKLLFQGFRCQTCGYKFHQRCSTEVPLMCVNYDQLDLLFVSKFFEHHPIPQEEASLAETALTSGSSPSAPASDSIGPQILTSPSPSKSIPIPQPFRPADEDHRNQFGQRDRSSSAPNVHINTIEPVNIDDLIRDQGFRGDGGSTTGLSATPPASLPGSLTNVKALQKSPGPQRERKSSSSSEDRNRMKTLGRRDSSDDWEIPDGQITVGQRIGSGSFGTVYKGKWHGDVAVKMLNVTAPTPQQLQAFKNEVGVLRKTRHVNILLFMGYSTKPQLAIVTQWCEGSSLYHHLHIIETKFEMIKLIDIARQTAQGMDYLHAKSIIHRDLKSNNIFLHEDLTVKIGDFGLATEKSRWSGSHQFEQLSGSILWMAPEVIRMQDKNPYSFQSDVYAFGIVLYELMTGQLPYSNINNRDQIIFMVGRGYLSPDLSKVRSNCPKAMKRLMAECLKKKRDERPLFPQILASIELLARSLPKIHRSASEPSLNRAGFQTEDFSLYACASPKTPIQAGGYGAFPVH

[5] = biological target: Serine/threonine-protein kinase B-raf (Homo sapiens, UniProt P15056); assay: Inhibition of wild type B-RAF (unknown origin) incubated for 40 mins in presence of Mg/ATP mix by [gamma p33]-ATP based scintillation counting method
Chain of Serine/threonine-protein kinase B-raf (Homo sapiens, UniProt P15056) (P15056 whole entry): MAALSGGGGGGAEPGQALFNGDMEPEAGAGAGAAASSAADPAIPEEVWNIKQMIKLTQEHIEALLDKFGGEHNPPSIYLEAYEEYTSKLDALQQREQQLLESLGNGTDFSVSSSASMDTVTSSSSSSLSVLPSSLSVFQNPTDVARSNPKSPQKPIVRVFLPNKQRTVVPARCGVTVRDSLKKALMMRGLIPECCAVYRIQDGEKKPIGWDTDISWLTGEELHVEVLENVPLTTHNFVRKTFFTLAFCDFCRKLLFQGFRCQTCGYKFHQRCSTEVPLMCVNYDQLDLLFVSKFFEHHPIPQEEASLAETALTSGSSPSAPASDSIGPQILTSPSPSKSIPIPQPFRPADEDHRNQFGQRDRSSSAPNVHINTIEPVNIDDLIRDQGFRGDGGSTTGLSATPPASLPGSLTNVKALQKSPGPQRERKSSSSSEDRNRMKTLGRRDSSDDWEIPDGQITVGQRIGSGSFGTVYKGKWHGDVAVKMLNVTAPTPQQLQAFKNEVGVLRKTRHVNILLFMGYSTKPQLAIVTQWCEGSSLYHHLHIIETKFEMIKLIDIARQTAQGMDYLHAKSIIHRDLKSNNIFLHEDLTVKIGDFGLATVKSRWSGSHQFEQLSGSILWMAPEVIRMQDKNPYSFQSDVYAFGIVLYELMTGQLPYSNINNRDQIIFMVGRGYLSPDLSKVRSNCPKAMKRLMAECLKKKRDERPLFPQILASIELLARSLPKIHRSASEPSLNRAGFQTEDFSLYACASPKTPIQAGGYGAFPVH

[6] = biological target: Vascular endothelial growth factor receptor 2 (Homo sapiens, UniProt P35968); assay: Inhibition of KDR (unknown origin) incubated for 40 mins in presence of Mg/ATP mix by [gamma p33]-ATP based scintillation counting method
Cytochrome P450 3A4 = Cytochrome P450 3A4 (Homo sapiens, UniProt P08684); assay: Inhibition of CYP3A4 (unknown origin) using BOMCC as a substrate incubated for 20 mins by fluorescence based analysis; type: ADME
Chain of Cytochrome P450 3A4 (P08684 whole entry): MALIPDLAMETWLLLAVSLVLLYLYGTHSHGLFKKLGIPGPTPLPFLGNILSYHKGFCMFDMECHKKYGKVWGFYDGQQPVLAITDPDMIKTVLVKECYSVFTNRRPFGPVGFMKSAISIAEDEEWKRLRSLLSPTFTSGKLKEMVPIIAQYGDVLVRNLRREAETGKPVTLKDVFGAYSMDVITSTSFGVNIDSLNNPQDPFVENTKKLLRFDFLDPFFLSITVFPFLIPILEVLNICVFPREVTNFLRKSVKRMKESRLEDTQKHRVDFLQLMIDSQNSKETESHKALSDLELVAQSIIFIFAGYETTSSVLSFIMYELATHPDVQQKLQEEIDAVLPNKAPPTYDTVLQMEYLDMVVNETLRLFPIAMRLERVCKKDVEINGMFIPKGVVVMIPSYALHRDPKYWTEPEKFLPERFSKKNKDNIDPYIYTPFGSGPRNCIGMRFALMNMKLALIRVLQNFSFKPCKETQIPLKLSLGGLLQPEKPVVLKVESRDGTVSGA

[7] = biological target: Dual specificity mitogen-activated protein kinase kinase 2 (Homo sapiens, UniProt P36507); assay: Inhibition of MEK2 (unknown origin) incubated for 40 mins in presence of Mg/ATP mix by [gamma p33]-ATP based scintillation counting method
Chain of Dual specificity mitogen-activated protein kinase kinase 2 (P36507 whole entry): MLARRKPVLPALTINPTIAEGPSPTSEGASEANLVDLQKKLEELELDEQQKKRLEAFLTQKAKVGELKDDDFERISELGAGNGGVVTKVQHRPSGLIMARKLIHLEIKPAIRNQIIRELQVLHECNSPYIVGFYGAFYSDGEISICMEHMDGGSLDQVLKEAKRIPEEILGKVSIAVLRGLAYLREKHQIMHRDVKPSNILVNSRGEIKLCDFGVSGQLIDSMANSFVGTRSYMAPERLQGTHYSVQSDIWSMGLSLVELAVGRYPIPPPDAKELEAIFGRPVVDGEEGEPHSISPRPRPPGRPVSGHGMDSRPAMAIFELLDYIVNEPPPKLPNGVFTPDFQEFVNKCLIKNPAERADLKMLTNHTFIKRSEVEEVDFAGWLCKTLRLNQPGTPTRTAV

Cytochrome P450 2D6 = Cytochrome P450 2D6 (Homo sapiens, UniProt P10635); assay: Inhibition of CYP2D6 (unknown origin) using EOMCC as a substrate incubated for 20 mins by fluorescence based analysis; type: ADME
hERG (KCNH2) = hERG (KCNH2) (Homo sapiens, UniProt Q12809); assay: Safety index, ratio of test compound IC50 to E-4031 IC50 for inhibition of human ERG incubated for 3 hrs by competitive fluorescence tracer binding based assay; details: read-out: Ratio IC50
[8] = biological target: Receptor-type tyrosine-protein kinase FLT3 (Homo sapiens, UniProt P36888); assay: Inhibition of FLT-3(unknown origin) incubated for 40 mins in presence of Mg/ATP mix by [gamma p33]-ATP based scintillation counting method
Homo sapiens = species on record: Homo sapiens; assay: Selectivity ratio of IC50 for inhibition of EFGR-T790M mutant (unknown origin) to IC50 for ErbB4 (unknown origin); details: time 40.0 min
[9] = biological target: Epidermal growth factor receptor (Homo sapiens, UniProt P00533, L861Q); assay: Inhibition of EGFR- L861Q mutant (unknown origin) incubated for 40 mins in presence of Mg/ATP mix by [gamma p33]-ATP based scintillation counting method
CYP3A4 = CYP3A4 (Homo sapiens, UniProt P08684); assay: Potency index, ratio of test compound IC50 to ketoconazole IC50 for inhibition of CYP3A4 (unknown origin) using BOMCC as a substrate incubated for 20 mins by fluorescence based analysis; type: ADME; details: probe BOMCC
Chain of CYP3A4 (P08684 whole entry): as the sequence (P08684 whole entry) above

[10] = biological target: T1, Receptor tyrosine-protein kinase erbB-4 (Homo sapiens, UniProt Q15303); assay: Inhibition of ErbB4 (unknown origin) at 10 uM incubated for 40 mins in presence of Mg/ATP mix by [gamma p33]-ATP based scintillation counting method relative to control
T1 sequence (Q15303 whole entry): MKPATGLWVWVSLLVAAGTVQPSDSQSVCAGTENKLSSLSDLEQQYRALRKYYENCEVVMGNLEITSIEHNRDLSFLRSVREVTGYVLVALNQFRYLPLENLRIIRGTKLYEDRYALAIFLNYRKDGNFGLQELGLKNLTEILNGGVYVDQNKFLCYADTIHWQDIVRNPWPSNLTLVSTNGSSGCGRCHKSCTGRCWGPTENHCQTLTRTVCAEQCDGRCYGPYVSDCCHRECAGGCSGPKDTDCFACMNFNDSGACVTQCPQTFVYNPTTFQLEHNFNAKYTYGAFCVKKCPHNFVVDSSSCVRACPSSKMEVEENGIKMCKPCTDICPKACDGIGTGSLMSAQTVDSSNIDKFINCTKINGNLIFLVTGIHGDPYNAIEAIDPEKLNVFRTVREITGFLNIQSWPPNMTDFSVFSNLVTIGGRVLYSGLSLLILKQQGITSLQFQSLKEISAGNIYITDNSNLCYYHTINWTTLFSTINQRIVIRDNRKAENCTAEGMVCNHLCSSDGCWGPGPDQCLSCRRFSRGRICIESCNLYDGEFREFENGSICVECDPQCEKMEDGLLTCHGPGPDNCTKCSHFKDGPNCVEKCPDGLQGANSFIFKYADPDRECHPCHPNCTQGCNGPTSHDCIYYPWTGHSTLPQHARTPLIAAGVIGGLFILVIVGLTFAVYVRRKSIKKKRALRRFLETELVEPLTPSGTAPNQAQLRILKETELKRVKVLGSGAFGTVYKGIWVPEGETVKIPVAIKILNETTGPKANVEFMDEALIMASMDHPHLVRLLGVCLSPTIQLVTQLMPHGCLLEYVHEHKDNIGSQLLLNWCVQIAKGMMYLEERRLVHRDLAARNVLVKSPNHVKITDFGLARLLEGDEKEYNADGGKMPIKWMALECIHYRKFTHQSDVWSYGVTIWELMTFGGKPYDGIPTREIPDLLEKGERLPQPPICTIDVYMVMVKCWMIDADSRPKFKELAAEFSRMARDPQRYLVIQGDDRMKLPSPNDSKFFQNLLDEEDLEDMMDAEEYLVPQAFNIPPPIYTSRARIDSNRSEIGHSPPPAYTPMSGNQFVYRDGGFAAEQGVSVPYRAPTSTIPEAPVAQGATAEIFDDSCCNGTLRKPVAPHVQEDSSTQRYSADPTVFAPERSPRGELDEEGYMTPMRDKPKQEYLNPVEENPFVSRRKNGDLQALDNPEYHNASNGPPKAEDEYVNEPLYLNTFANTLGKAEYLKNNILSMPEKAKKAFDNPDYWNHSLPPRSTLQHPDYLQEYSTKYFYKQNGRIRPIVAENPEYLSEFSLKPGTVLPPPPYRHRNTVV

[11] = biological target: T1, Receptor tyrosine-protein kinase erbB-4; assay: Inhibition of ErbB4 (unknown origin) incubated for 40 mins in presence of Mg/ATP mix by [gamma p33]-ATP based scintillation counting method
[12] = biological target: Epidermal growth factor receptor (Homo sapiens, UniProt P00533, L858R/T790M); assay: Inhibition of EGFR T790M/L858R mutant (unknown origin) incubated for 40 mins in presence of Mg/ATP mix by [gamma p33]-ATP based scintillation counting method
[13] = biological target: Epidermal growth factor receptor (Homo sapiens, UniProt P00533, T790M); assay: Inhibition of EGFR- T790M mutant (unknown origin) incubated for 40 mins in presence of Mg/ATP mix by [gamma p33]-ATP based scintillation counting method
[14] = biological target: Voltage-gated inwardly rectifying potassium channel KCNH2 (Homo sapiens, UniProt Q12809); assay: Inhibition of human ERG incubated for 3 hrs by competitive fluorescence tracer binding based assay

SMILES: c1ccc(COc2cccc(-c3nc4sccn4c3-c3ccncn3)c2)cc1
- growth at 10 µM [1]: 78.4%
- IC50 [2]: 2030 nM
- IC50 [3]: 7060 nM
- IC50 [4]: 1590 nM
- IC50 [5]: 1000 nM
- IC50 [6]: 710 nM
- IC50 (Cytochrome P450 3A4): 20900 nM
- IC50 [7]: 3250 nM
- IC50 (Cytochrome P450 2D6): > 90000 nM
- selectivity ratio at 3 h (hERG (KCNH2)): 530
- IC50 [8]: 1360 nM
- Selectivity Index (Homo sapiens): 21.5
- IC50 [9]: 4350 nM
- selectivity ratio at 20 min (CYP3A4): 8790
- inhibition [10]: > 60%
- IC50 [11]: 17.7 nM
- IC50 [12]: 8560 nM
- IC50 [13]: 380 nM
- IC50 [14]: 12800 nM
